In one assay the test system is Vibrio cholerae. The experiment in a line: Antibacterial activity against Vibrio cholerae ATCC 14035 incubated for 24 hr followed by compound washout measured after 24 hr by dilution method. Type of assay: functional.
For a further assay, the system named is Staphylococcus aureus. The experiment in a line: Antibacterial activity against Staphylococcus aureus ATCC 25923 incubated for 24 hr followed by compound washout measured after 24 hr by dilution method. Format: functional.

Converted amounts (≈) assume the structure as drawn.

Drawing on ChEMBL document CHEMBL3044900, “Synthesis of pregnenolonedanazolethylendiamine conjugate: relationship between descriptors log P, , R m, and V m and its antibacterial activity in S. aureus and V. cholerae” (2011), this text covers MIC for five compounds.

As to `O=C(O)c1cn(C2CC2)c2cc(N3CCNCC3)c(F)cc2c1=O` [CIPROFLOXACIN], the MIC turned out to be 3.01 µM (≈ 0.997 µg/mL) in the assay with Vibrio cholerae (ATCC 14035, 24 h) and 0.377 µM (≈ 0.125 µg/mL) against Staphylococcus aureus (ATCC 25923, 24 h).
For `C#C[C@@]1(OC(=O)CCC(=O)O[C@H]2CC[C@@]3(C)C(=CC[C@H]4[C@@H]5CC[C@H](C(C)=O)[C@@]5(C)CC[C@@H]43)C2)CC[C@H]2[C@@H]3CCC4=C(CNCCN)c5oncc5C[C@]4(C)[C@H]3CC[C@@]21C`, in that order: 1.23 µM (≈ 0.994 µg/mL) and 1.23 µM (≈ 0.994 µg/mL).
For `C#C[C@@]1(OC(=O)CCC(=O)O[C@H]2CC[C@@]3(C)C(=CC[C@H]4[C@@H]5CC[C@H](C(C)=O)[C@@]5(C)CC[C@@H]43)C2)CC[C@H]2[C@@H]3CCC4=Cc5oncc5C[C@]4(C)[C@H]3CC[C@@]21C` [DANAZOL-PREGNENOLONE], the MIC in the assay with Vibrio cholerae (ATCC 14035, 24 h) was 1.32 µM (≈ 0.972 µg/mL); in the assay on Staphylococcus aureus (ATCC 25923, 24 h), 0.663 µM (≈ 0.488 µg/mL).
For the compound GENTAMICIN, the MIC against Vibrio cholerae turned out to be 0.0134 µM; against Staphylococcus aureus it was 0.274 µM.
Take `CO/N=C(\C(=O)N[C@@H]1C(=O)N2C(C(=O)O)=C(COC(C)=O)CS[C@H]12)c1csc(N)n1` [CEFOTAXIME]: the MIC in the assay with Vibrio cholerae (ATCC 14035, 24 h) came to 0.523 µM (≈ 0.238 µg/mL); in the assay on Staphylococcus aureus (ATCC 25923, 24 h), 0.261 µM (≈ 0.119 µg/mL).

What is called MIC is the lowest concentration that inhibits growth of the organism. High values mean a need for much substance, low ones inhibition by little substance.
